The results in this text go back to patent US20250122191A1, “COMPOUNDS AS BCL-2 INHIBITORS” (Fochon Biosciences, Ltd, priority 2021, published 2025).

Common to all, as to type: cell-based
Experiment [1] relates to RS4;11-BCL-2 D103Y cells. Briefly: Cell proliferation assay (MTS), RS4;11-BCL-2 D103Y engineered cells. The conditions noted are these: Homo sapiens, 72 h, read-out: RS4, 11 BCL2-D103Y IC50. The source says: MTS testing kit was purchased from Promega (Madison, WI, USA). The RPMI-1640, Fetal bovine serum and Penicillin-Streptomycin were purchased from BI (Biological Industries, Beit Haemek, Israel). Puromycin was purchased from Beyotime (shanghai, China). Dimethyl sulfoxide (DMSO) was purchased from Sigma (St. Louis., MO, USA). RS4;11-BCL-2 G101V (Cobioer Lot. #: CBD2021063013P4), RS4;11-BCL-2 D103E (Cobioer Lot. #: CBD2021063013P4), RS4;11-BCL-2 D103Y (Cobioer Lot. #: CBD2022012101P4) and RS4;11-BCL-2 F104L (Cobioer Lot. #: CBD2021063014P4) cells were cultured in RPMI1640 supplemented with 1 ug/mL puromycin, 100 U/mL Penicillin-Streptomycin and 10% FBS.
To investigate whether a compound is able to inhibit the activity of BCL-2 mutation in cells, a mechanism-based assay using engineered cell lines stably overexpressing BCL-2 mutation (RS4;11-BCL-2 G101V, RS4;11-BCL-2 D103E, RS4;11-BCL-2 D103Y, and RS4;11-BCL-2 F104L) was developed. In this assay, the inhibition of BCL-2 mutation was reflected by the inhibition of cell proliferation of engineered RS4;11 cells. Cells were plated into 96-well plates at optimized cell density (RS4;11-BCL-2 G101V: 5000 cells/well; RS4;11-BCL-2 D103E: 7500 cells/well; RS4;11-BCL-2 D103Y: 7500 cells/well; RS4;11-BCL-2 F104L: 5000 cells/well). Plates were incubated at 37° C., with 5% CO2 for 4 h (RS4;11-BCL-2 G101V, RS4;11-BCL-2 F104L) and 24 h (RS4;11-BCL-2 D103E, RS4;11-BCL-2 D103Y), respectively. Compounds were serially diluted and added to the plates with the final concentrations of 10000, 3333.3, 1111.1, 370.4, 123.5, 41.2, 13.7, 4.6 and 1.5 nM. Plates were incubated at 37° C., with 5% CO2 for 120 h (RS4; 11-BCL-2 G101V, RS4; 11-BCL-2 F104L) and 72 h (RS4;11-BCL-2 D103E, RS4;11-BCL-2 D103Y), respectively. 20 μl MTS was added into each well and the plates were incubated at 37° C., with 5% CO2 exactly for 2 h. The absorbance was measured by a microplate reader at 490 nm. IC50 values were calculated using GraphPad Prism 8.0 software.

For experiment [2], the system named is RS4;11-BCL-2 G101V cells. Briefly: Cell proliferation assay (MTS), RS4;11-BCL-2 G101V engineered cells. The conditions noted are these: Homo sapiens, 120 h, read-out: RS4, 11 BCL2-G101V IC50. In outline: (§1)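 Cells were plated, allowed to settle 4 h (G101V, F104L) or 24 h (D103E, D103Y), and treated with serially diluted compound (10000 down to 1.5 nM). After 120 h or 72 h respectively at 37 °C, MTS was added for 2 h and absorbance at 490 nm gave IC50 values.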

In experiment [3] the test system is Toledo cells. Briefly: Cell proliferation assay (MTS), Toledo cells. The conditions noted are these: Homo sapiens, 72 h. Put shortly:
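Toledo cells (RPMI-1640, 10% FBS) seeded at 30000 cells/well, rested 4 h, then exposed 72 h at 37 °C, 5% CO2 to compound at nine final concentrations, 1.5–10000 nM. Viability by MTS (2 h), absorbance at 490 nm. IC50 from the concentration-response.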

The subject of experiment [4] is RS4;11-BCL-2 F104L cells. The experiment in a line: Cell proliferation assay (MTS), RS4;11-BCL-2 F104L engineered cells. The settings on record: Homo sapiens, 120 h, read-out: RS4, 11 BCL2-F104L IC50. Put shortly: as §1
Experiment [5] has as its system RS4;11-BCL-2 D103E cells. Briefly: Cell proliferation assay (MTS), RS4;11-BCL-2 D103E engineered cells. The settings on record: Homo sapiens, 72 h, read-out: RS4, 11 BCL2-D103E IC50. Put shortly: as §1

As for `COc1ccc(CN2CCN(C3CC4(CCN(c5ccc(C(=O)NS(=O)(=O)c6cnc(NC[C@H]7CC[C@](C)(O)CC7)c([N+](=O)[O-])c6)c(Oc6cc7c(F)c[nH]c7nc6OC)c5)CC4)C3)[C@H](c3ccccc3C(C)C)C2)cc1OC` [Example 7, 4-(2-((R)-4-(3,4-dimethoxybenzyl)-2-(2-isopropylphenyl)piperazin-1-yl)-7-azaspiro[3.5]nonan-7-yl)-2-((3-fluoro-6-methoxy-1H-pyrrolo[2,3-b]pyridin-5-yl)oxy)-N-((6-((((1r,4r)-4-hydroxy-4-methylcyclohexyl)methyl)amino)-5-nitropyridin-3-yl)sulfonyl)benzamide], the half-maximal inhibitory concentration (IC50) in experiment [1] was determined as 9 nM; in experiment [2], 1 nM; in experiment [3], 1 nM; in experiment [4], 1 nM; in experiment [5] it was 2 nM.

In the case of `COc1cc(CN2CCN(C3CC4(CCN(c5ccc(C(=O)NS(=O)(=O)c6cnc(NC[C@H]7CC[C@](C)(O)CC7)c([N+](=O)[O-])c6)c(Oc6cc7c(F)c[nH]c7nc6OC)c5)CC4)C3)[C@H](c3ccccc3C(C)C)C2)cc(O)n1` [Example 69, 2-((3-fluoro-6-methoxy-1H-pyrrolo[2,3-b]pyridin-5-yl)oxy)-N-((6-((((1r,4r)-4-hydroxy-4-methylcyclohexyl)methyl)amino)-5-nitropyridin-3-yl)sulfonyl)-4-(2-((R)-4-((2-hydroxy-6-methoxypyridin-4-yl)methyl)-2-(2-isopropylphenyl)piperazin-1-yl)-7-azaspiro[3.5]nonan-7-yl)benzamide], the half-inhibitory concentration (IC50) in experiment [1] and in experiment [2] was 1 nM each time.

Turning to `COc1ccc(CN2CCN(C3CC4(CCN(c5ccc(C(=O)NS(=O)(=O)c6cnc(NC[C@H]7CC[C@](C)(O)CC7)c([N+](=O)[O-])c6)c(Oc6cnc7[nH]cc(F)c7c6)c5)CC4)C3)[C@H](c3ccccc3C(C)C)C2)cc1OC` [Example 74, 4-(2-((R)-4-(3,4-dimethoxybenzyl)-2-(2-isopropylphenyl)piperazin-1-yl)-7-azaspiro[3.5]nonan-7-yl)-2-((3-fluoro-1H-pyrrolo[2,3-b]pyridin-5-yl)oxy)-N-((6-((((1r,4r)-4-hydroxy-4-methylcyclohexyl)methyl)amino)-5-nitropyridin-3-yl)sulfonyl)benzamide], the 50% inhibitory concentration (IC50) worked out at 5 nM in experiment [1], 1 nM in experiment [2], 1 nM in experiment [3] and 1 nM in experiment [5].

`COc1nc2[nH]cc(F)c2cc1Oc1cc(N2CCC3(CC2)CC(N2CCN(Cc4ccnc5c4CCO5)C[C@H]2c2ccccc2C(C)C)C3)ccc1C(=O)NS(=O)(=O)c1cnc(NC[C@H]2CC[C@](C)(O)CC2)c([N+](=O)[O-])c1` [Example 190, 4-(2-((R)-4-((2,3-dihydrofuro[2,3-b]pyridin-4-yl)methyl)-2-(2-isopropylphenyl)piperazin-1-yl)-7-azaspiro[3.5]nonan-7-yl)-2-((3-fluoro-6-methoxy-1H-pyrrolo[2,3-b]pyridin-5-yl)oxy)-N-((6-((((1r,4r)-4-hydroxy-4-methylcyclohexyl)methyl)amino)-5-nitropyridin-3-yl)sulfonyl)benzamide]: the half-maximal inhibitory concentration (IC50) in experiment [1] stood at 8 nM; in experiment [5], 1 nM.

Regarding `COc1nc2[nH]cc(F)c2cc1Oc1cc(N2CCC3(CC2)CC(N2CCN(Cc4ccnc5c4NCCO5)C[C@H]2c2ccccc2C(C)C)C3)ccc1C(=O)NS(=O)(=O)c1cnc(NC[C@H]2CC[C@](C)(O)CC2)c([N+](=O)[O-])c1` [Example 192, 4-(2-((R)-4-((2,3-dihydro-1H-pyrido[2,3-b][1,4]oxazin-8-yl)methyl)-2-(2-isopropylphenyl)piperazin-1-yl)-7-azaspiro[3.5]nonan-7-yl)-2-((3-fluoro-6-methoxy-1H-pyrrolo[2,3-b]pyridin-5-yl)oxy)-N-((6-((((1r,4r)-4-hydroxy-4-methylcyclohexyl)methyl)amino)-5-nitropyridin-3-yl)sulfonyl)benzamide], the IC50 in experiment [1] and in experiment [5] was 1 nM in each case.

Consider `COc1nc2[nH]cc(F)c2cc1Oc1cc(N2CCC3(CC2)CC(N2CCN(Cc4ccnc5c4NCC(C)O5)C[C@H]2c2ccccc2C(C)C)C3)ccc1C(=O)NS(=O)(=O)c1cnc(NC[C@H]2CC[C@](C)(O)CC2)c([N+](=O)[O-])c1` (stereo partly drawn) [Example 195, 2-((3-fluoro-6-methoxy-1H-pyrrolo[2,3-b]pyridin-5-yl)oxy)-N-((6-((((1r,4r)-4-hydroxy-4-methylcyclohexyl)methyl)amino)-5-nitropyridin-3-yl)sulfonyl)-4-(2-((2R)-2-(2-isopropylphenyl)-4-((3-methyl-2,3-dihydro-1H-pyrido[2,3-b][1,4]oxazin-8-yl)methyl)piperazin-1-yl)-7-azaspiro[3.5]nonan-7-yl)benzamide], for which the IC50 in experiment [1] came out at 8 nM.

On to `COc1nc2[nH]cc(F)c2cc1Oc1cc(N2CCC3(CC2)CC(N2CCN(Cc4ccncc4)C[C@H]2c2ccccc2C(C)C)C3)ccc1C(=O)NS(=O)(=O)c1cnc(NC[C@H]2CC[C@](C)(O)CC2)c([N+](=O)[O-])c1` [Example 239, 2-((3-fluoro-6-methoxy-1H-pyrrolo[2,3-b]pyridin-5-yl)oxy)-N-((6-((((1r,4r)-4-hydroxy-4-methylcyclohexyl)methyl)amino)-5-nitropyridin-3-yl)sulfonyl)-4-(2-((R)-2-(2-isopropylphenyl)-4-(pyridin-4-ylmethyl)piperazin-1-yl)-7-azaspiro[3.5]nonan-7-yl)benzamide], for which the IC50 in experiment [1] is 8 nM; in experiment [2] it was 1 nM; in experiment [3], 1 nM; in experiment [4], 1 nM.

As to `COc1cc(CN2CCN(C3CC4(CCN(c5ccc(C(=O)NS(=O)(=O)c6cnc(NC[C@H]7CC[C@](C)(O)CC7)c([N+](=O)[O-])c6)c(Oc6cc7c(F)c[nH]c7nc6OC)c5)CC4)C3)[C@H](c3ccccc3C(C)C)C2)ncc1C1CC1` [Example 249, 4-(2-((R)-4-((5-cyclopropyl-4-methoxypyridin-2-yl)methyl)-2-(2-isopropylphenyl)piperazin-1-yl)-7-azaspiro[3.5]nonan-7-yl)-2-((3-fluoro-6-methoxy-1H-pyrrolo[2,3-b]pyridin-5-yl)oxy)-N-((6-((((1r,4r)-4-hydroxy-4-methylcyclohexyl)methyl)amino)-5-nitropyridin-3-yl)sulfonyl)benzamide], the IC50 amounted to 5 nM in experiment [1], 1 nM in experiment [2] and 1 nM in experiment [5].

For `COc1cc(CN2CCN(C3CC4(CCN(c5ccc(C(=O)NS(=O)(=O)c6cnc(NC[C@H]7CC[C@](C)(O)CC7)c([N+](=O)[O-])c6)c(Oc6cc7c(F)c[nH]c7nc6OC)c5)CC4)C3)[C@H](c3ccccc3C(C)C)C2)cnc1C1CC1` [Example 254, 4-(2-((R)-4-((6-cyclopropyl-5-methoxypyridin-3-yl)methyl)-2-(2-isopropylphenyl)piperazin-1-yl)-7-azaspiro[3.5]nonan-7-yl)-2-((3-fluoro-6-methoxy-1H-pyrrolo[2,3-b]pyridin-5-yl)oxy)-N-((6-((((1r,4r)-4-hydroxy-4-methylcyclohexyl)methyl)amino)-5-nitropyridin-3-yl)sulfonyl)benzamide], the IC50 in experiment [1] is 3 nM; in experiment [2] it was 1 nM; in experiment [3] it was 1 nM; in experiment [4], 3 nM.
